We go through 60 molecules from patent US20080090805A1, “CB-1 MODULATING COMPOUNDS AND THEIR USE” (ACADIA PHARMACEUTICALS INC., priority 2005, published 2008).

Like-named read-outs stand apart in the source and are kept apart here.

This test addresses CB1 (mutant) (Homo sapiens, UniProt P21554). As to the kind of experiment: R-SAT functional receptor assay, CB1 (mutant, truncated after amino acid 417). In kind it is cell-based. Conditions: R-SAT CB1; for IC50 / pIC50: receptor form (mutant or wild-type) not stated; for Emax: read-out: % Inhibition.
Setting [1] is: Appendix A, read-out: pIC50 (converted).
[2] abbreviates: Appendix A, receptor form not stated, relative to SR141716 (100%).

Sequence of CB1 (mutant) (P21554 1-417, change not shown): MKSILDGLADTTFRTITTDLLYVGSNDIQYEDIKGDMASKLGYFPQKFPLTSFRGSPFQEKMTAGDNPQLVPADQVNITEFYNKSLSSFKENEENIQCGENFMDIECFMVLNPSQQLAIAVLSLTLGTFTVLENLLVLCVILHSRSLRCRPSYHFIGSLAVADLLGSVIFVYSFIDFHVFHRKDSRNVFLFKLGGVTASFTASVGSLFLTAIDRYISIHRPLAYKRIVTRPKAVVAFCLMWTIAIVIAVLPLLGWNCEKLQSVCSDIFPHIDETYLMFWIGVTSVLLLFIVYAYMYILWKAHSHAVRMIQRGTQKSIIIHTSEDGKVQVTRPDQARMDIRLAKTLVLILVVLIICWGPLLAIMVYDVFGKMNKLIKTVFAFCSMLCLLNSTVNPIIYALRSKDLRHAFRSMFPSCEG

In the case of `O=C(NCCc1ccc(Cl)cc1)c1ccc2c(c1)N=C(c1ccc(Cl)cc1)c1ccccc1S2` [drawing 631], under setting [1], the IC50 was 5.01 nM. Also, under setting [2], the Emax worked out at 104%.

In the case of `CCCC1=Nc2cc(C(=O)NCCN3CCCC3)ccc2Sc2ccccc21`, the IC50 under setting [1] was 3160 nM. Under setting [2], the Emax stood at 138%.

As for `Cc1cccnc1C1=Nc2cc(C(=O)NCc3cccnc3)ccc2Sc2ccccc21`, under setting [1], the IC50 was more than 126 nM. The Emax under setting [2] came to 39%.

For the molecule `CCCNC(=O)c1ccc2c(c1)N=C(c1ccc(Cl)cc1)c1ccccc1S2` [drawing 799], the IC50 under setting [1] is 10 nM. Also, the Emax under setting [2] turned out to be 103%.

Consider `CCCCN(C)C(=O)c1ccc2c(c1)N=C(c1cccc(Cl)c1)c1ccccc1S2`, for which the Emax under setting [2] turned out to be 82%. This molecule also had an IC50 (pIC50, Appendix A) of 79.4 nM.

With `C[C@@H]1CCC[C@H](C)N1NC(=O)c1ccc2c(c1)N=C(c1cccc(F)c1)c1ccccc1S2` [drawing 727], the IC50 under setting [1] was 7.94 nM. In addition, the Emax under setting [2] is 120%.

As for `CCCC1=NC2=C(CCC(C(=O)N3CCN(c4ccccc4F)CC3)=C2)Sc2ccccc21`, the IC50 under setting [1] was 251 nM. Further, the Emax under setting [2] worked out at 97%.

On to `CCCC1=Nc2cc(C(=O)NCCc3ccccc3)ccc2Sc2ccccc21`, for which, under setting [1], the IC50 is 794 nM. Also, the Emax under setting [2] is 98%.

In the case of `O=C(NCc1ccccc1Cl)c1ccc2c(c1)N=C(c1cccc(Cl)c1)c1ccccc1S2` [drawing 955], under setting [1], the IC50 is 20 nM. For the same molecule, the Emax under setting [2] came to 102%.

Consider `CCCC1=Nc2cc(C(=O)NCCCOC(C)C)ccc2Sc2ccccc21`, for which the IC50 under setting [1] is 63.1 nM. Besides, under setting [2], the Emax worked out at 117%.

On to `CC(C)CNC(=O)c1ccc2c(c1)N=C(c1ccc(F)cn1)c1ccccc1S2` [drawing 711], for which, under setting [1], the IC50 was 7.94 nM. Besides, the Emax under setting [2] was found to be 113%.

Regarding `Cc1ccc(CNC(=O)c2ccc3c(c2)N=C(c2sccc2C)c2ccccc2S3)o1` [drawing 953], under setting [1], the IC50 is 20 nM. In addition, the Emax under setting [2] stood at 79%.

With `O=C(NN1CCCCC1)c1ccc2c(c1)N=C(N1CCOCC1)c1ccccc1S2`, the Emax under setting [2] came to 76%.

`CCCC1=Nc2cc(C(=O)NCCc3ccc(SC)cc3)ccc2Sc2ccccc21`: under setting [1], the IC50 is 251 nM. Further, under setting [2], the Emax came out at 103%.

Turning to `Cc1ccc(N2CCN(C(=O)c3ccc4c(c3)N=C(c3ccc(Cl)cc3)c3ccccc3S4)CC2)c(C)c1` [drawing 970], under setting [1], the IC50 was 316 nM. Also, the Emax under setting [2] was 94%.

As for `Cc1csc(CNC(=O)c2ccc3c(c2)N=C(c2cccc(C)n2)c2ccccc2S3)c1` [drawing 561], the IC50 under setting [1] was 2.51 nM. Also, the Emax under setting [2] amounted to 85%.

With `CONC(=O)c1ccc2c(c1)N=C(c1ccc(F)cc1)c1ccccc1S2`, the IC50 under setting [1] is 501 nM. Further, under setting [2], the Emax came to 65%.

In the case of `O=C(NCc1cccnc1)c1ccc2c(c1)N=C(c1cccc(F)c1)c1ccccc1S2` [drawing 793], the IC50 under setting [1] is 10 nM. The Emax under setting [2] is 130%.

As to `CCONC(=O)c1ccc2c(c1)N=C(c1sccc1C)c1ccccc1S2`, the IC50 under setting [1] is 200 nM. The Emax under setting [2] amounted to 77%.

With `CCCNC(=O)c1ccc2c(c1)N=C(c1cccc(Cl)c1)c1ccccc1S2` [drawing 641], the IC50 under setting [1] is 5.01 nM. For the same molecule, under setting [2], the Emax came out at 107%.

Consider `O=C(NC1CCC(F)(F)CC1)c1ccc2c(c1)N=C(c1ccc(Cl)s1)c1ccccc1S2` [drawing 767], for which the IC50 under setting [1] was 10 nM. Also, the Emax under setting [2] amounted to 71%.

Take `CCCCN(C)C(=O)c1ccc2c(c1)N=C(c1ccc(F)cc1)c1ccccc1S2`: under setting [1], the IC50 is 31.6 nM. Moreover, under setting [2], the Emax came out at 107%.

For `O=C(NC1CCC(F)(F)CC1)c1ccc2c(c1)N=C(c1ccc(F)cc1)c1ccccc1S2` [drawing 821], the IC50 under setting [1] was 12.6 nM. For the same molecule, the Emax under setting [2] was 91%.

With `CCCCCC1=Nc2cc(C(=O)NN3CCCCC3)ccc2Sc2ccccc21`, the IC50 under setting [1] was 251 nM. Under setting [2], the Emax was found to be 100%.

`CCONC(=O)c1ccc2c(c1)N=C(c1ccc(F)cc1)c1ccccc1S2`: the IC50 under setting [1] is 63.1 nM. For the same molecule, the Emax under setting [2] was found to be 98%.

`CCCCNC(=O)c1ccc2c(c1)N=C(c1ccc(Cl)cc1)c1ccc(Cl)cc1S2` [drawing 766]: under setting [2], the Emax is 90%. In addition, the IC50 (pIC50, Appendix A) was 100 nM.

Consider `O=C(NCCc1ccc(Cl)cc1)c1ccc2c(c1)N=C(c1cccc(Cl)c1)c1ccccc1S2` [drawing 569], for which the IC50 under setting [1] was 2.51 nM. In addition, under setting [2], the Emax was determined as 106%.

Consider `Cc1ccsc1C1=Nc2cc(C(=O)NCCC(F)(F)F)ccc2Sc2ccccc21` [drawing 1047], for which the IC50 under setting [1] was 31.6 nM. Also, the Emax under setting [2] was found to be 101%.

Take `O=C(NC1CCC(F)(F)CC1)c1ccc2c(c1)N=C(c1cccc(F)c1)c1ccccc1S2` [drawing 659]: the IC50 under setting [1] was 6.31 nM. In addition, the Emax under setting [2] came to 77%.

`O=C(NC1CCCC1)c1ccc2c(c1)N=C(c1ccc(Cl)c(Cl)c1)c1ccccc1S2` [drawing 672]: the IC50 under setting [1] is 63.1 nM. In addition, under setting [2], the Emax turned out to be 95%.

Regarding `CCN(CCNC(=O)c1ccc2c(c1)N=C(N1CCCCC1)c1ccccc1S2)c1ccccc1` [drawing 913], the IC50 under setting [1] is 15.8 nM. Under setting [2], the Emax is 105%.

Turning to `CC(CNC(=O)c1ccc2c(c1)N=C(c1ccc(F)cc1)c1ccccc1S2)c1ccccc1` (stereo not shown) [drawing 639], the Emax under setting [2] amounted to 98%. Where the note is “pIC50, Appendix A”, this molecule gave an IC50 of 5.01 nM.

Regarding `CCCCNC(=O)c1ccc2c(c1)N=C(c1ccc(Cl)cc1)c1ccccc1S2(=O)=O`, the IC50 under setting [1] was 63.1 nM. For the same molecule, the Emax under setting [2] was found to be 106%.

With `O=C(NN1CCOCC1)c1ccc2c(c1)N=C(c1ccc(Cl)cc1)c1ccccc1S2`, the IC50 under setting [1] was 251 nM. For the same molecule, under setting [2], the Emax turned out to be 75%.

Take `O=C(NCc1ccc(F)cc1)c1ccc2c(c1)N=C(c1ccccc1)c1ccccc1S2` [drawing 745]: the IC50 under setting [1] was 7.94 nM. For the same molecule, the Emax under setting [2] is 108%.

A word on the % Inhibition: it is how much of the control response was suppressed. Lower therefore signals a response near the control. For the molecule `CC(NC(=O)c1ccc2c(c1)N=C(C1CCCCC1)c1ccccc1S2)c1ccccc1` (stereo not shown) [drawing 634], the IC50 under setting [1] is 63.1 nM. Also, the “% Inhibition” value under setting [2] came out at 87%.

Turning to `O=C(NCCc1ccccn1)c1ccc2c(c1)N=C(c1ccc(Br)cc1)c1ccccc1S2` [drawing 734], the IC50 under setting [1] is 79.4 nM. Besides, under setting [2], the Emax came out at 89%.

`O=C(NCCc1cccc(Cl)c1)c1ccc2c(c1)N=C(c1ccc(F)cc1)c1ccccc1S2` [drawing 919]: the IC50 under setting [1] was 15.8 nM. Further, the Emax under setting [2] was found to be 98%.

`C[C@@H]1CCC[C@H](C)N1NC(=O)c1ccc2c(c1)N=C(c1ccccc1F)c1ccccc1S2` [drawing 1149]: the IC50 under setting [1] is 39.8 nM. Moreover, under setting [2], the Emax stood at 103%.

For `COc1ccc(C2=Nc3cc(C(=O)NCCC(C)C)ccc3Sc3ccccc32)cc1` [drawing 965], under setting [1], the IC50 was 20 nM. For the same molecule, under setting [2], the Emax is 104%.

In the case of `CONC(=O)c1ccc2c(c1)N=C(c1sccc1C)c1ccccc1S2`, the IC50 under setting [1] was 501 nM. Also, the Emax under setting [2] turned out to be 45%.

For the molecule `NS(=O)(=O)c1ccc(CNC(=O)c2ccc3c(c2)N=C(c2ccc(F)cc2)c2ccccc2S3)cc1` [drawing 812], the Emax under setting [2] was determined as 83%.

On to `CCCC1=Nc2cc(C(=O)NC3CCC(C)CC3)ccc2Sc2ccccc21` (stereo not shown) [drawing 975], for which, under setting [2], the Emax was found to be 114%. Where the note is “pIC50, Appendix A”, the IC50 is 20 nM.

`O=C(NCc1ccco1)c1ccc2c(c1)N=C(c1ccccn1)c1ccccc1S2`: under setting [1], the IC50 was 31.6 nM. For the same molecule, under setting [2], the Emax turned out to be 102%.

`CCCNC(=O)c1ccc2c(c1)N=C(c1ccccc1Cl)c1ccccc1S2`: under setting [1], the IC50 is 79.4 nM. Further, the Emax under setting [2] is 78%.

`CCCCNC(=O)c1ccc2c(c1)N=C(c1ccc(Br)cn1)c1ccccc1S2` [drawing 807]: under setting [1], the IC50 was 10 nM. Moreover, under setting [2], the Emax turned out to be 105%.

Regarding `CC(C)NC(=O)c1ccc2c(c1)N=C(c1cccc(Cl)c1)c1ccccc1S2` [drawing 921], under setting [1], the IC50 was 15.8 nM. In addition, under setting [2], the Emax was 118%.

For the molecule `O=C(NC1CCCC1)c1ccc2c(c1)N=C(c1cccc(F)c1)c1ccccc1S2` [drawing 742], the IC50 under setting [1] was 79.4 nM. Under setting [2], the Emax is 100%.

Take `CC(NC(=O)c1ccc2c(c1)N=C(c1cccc(Cl)c1)c1ccccc1S2)c1ccccc1` (stereo not shown) [drawing 582]: the IC50 under setting [1] was 50.1 nM. In addition, the Emax under setting [2] was determined as 87%.

On to `Cc1cccc(C2=Nc3cc(C(=O)NCCC(F)(F)F)ccc3Sc3ccccc32)n1` [drawing 815], for which, under setting [1], the IC50 was 12.6 nM. The Emax under setting [2] is 93%.

On to `CC(C)NC(=O)c1ccc2c(c1)N=C(c1cccc(F)c1)c1ccccc1S2` [drawing 1155], for which the IC50 under setting [1] is 39.8 nM. In addition, the Emax under setting [2] was 104%.

For the molecule `O=C(NN1CCCC1)c1ccc2c(c1)N=C(c1ccc(Cl)cc1)c1ccccc1S2` [drawing 698], the IC50 under setting [1] was 79.4 nM. In addition, under setting [2], the Emax is 100%.

For orientation: pIC50 means the negative decadic logarithm of the IC50, by convention in mol/L. High values mean a small IC50, low ones a large IC50. For the setting “Appendix A”, `CONC(=O)c1ccc2c(c1)N=C(c1ccc(C#N)cc1)c1ccccc1S2` came in with a pIC50 of 1.0. Moreover, under setting [2], the Emax worked out at 36%.

`O=C(NCc1cccc(Cl)c1)c1ccc2c(c1)N=C(c1cccc(Cl)c1)c1cc(F)ccc1S2` [drawing 651]: the IC50 under setting [1] was 5.01 nM. Also, the Emax under setting [2] was determined as 107%.

With `O=C(NN1CCCCC1)c1ccc2c(c1)N=C(c1ccc(Cl)cn1)c1ccccc1S2` [drawing 959], under setting [1], the IC50 was 20 nM. Besides, the Emax under setting [2] amounted to 112%.

As for `Cc1cnc(-c2ccc3c(c2)N=C(c2ccc(Cl)cc2)c2ccccc2S3)[nH]1` [drawing 872], the IC50 under setting [1] was 200 nM. Further, under setting [2], the Emax stood at 88%.

For the molecule `CCCNC(=O)c1ccc2c(c1)N=C(c1ccccn1)c1ccccc1S2`, the IC50 under setting [1] was 39.8 nM. Further, the Emax under setting [2] was 116%.

`COCCNC(=O)c1ccc2c(c1)N=C(c1ncccc1C)c1ccccc1S2` yielded a pIC50 (Appendix A) of 1.0. Also, the Emax under setting [2] was -6%.

In the case of `Cc1ccc(CNC(=O)c2ccc3c(c2)N=C(c2cccc(Cl)c2)c2ccccc2S3)o1` [drawing 623], under setting [1], the IC50 is 5.01 nM. Further, under setting [2], the Emax was determined as 74%.

For the molecule `CC(CNC(=O)c1ccc2c(c1)N=C(c1cccc(Cl)c1)c1cc(F)ccc1S2)c1ccccc1` (stereo not shown) [drawing 879], under setting [1], the IC50 is 15.8 nM. In addition, the Emax under setting [2] stood at 113%.
